In US8680111B2 (Pfizer Inc., priority 2012, dated 2014):
Where two headings read alike, the source gives them in different places.

Experiments:
[1] = biological target: T1, human recombinant wild-type ALK kinase domain (amino acids 1093-1411) (Homo sapiens, UniProt Q9UM73); assay: Wild-type ALK enzyme assay (microfluidic mobility shift); assay type: biochemical; conditions: ATP 60 μM, competitive inhibition fit, read-out: WT ALK enzyme assay (Ki)
T1 construct: ALK kinase domain (amino acids 1093-1411); made in house
Procedure: The reactions were incubated for 1 h at room temperature, stopped by the addition of 0.1 M EDTA, pH 8, and the extent of reactions (˜15-20% conversion with no inhibitor) was determined after electrophoretic separation of the fluorescently labeled peptide substrate and phosphorylated product on an LabChip EZ Reader II (Caliper Life Sciences, Hopkinton, Mass.).

[2] = biological target: T2, human recombinant L1196M ALK kinase domain (amino acids 1093-1411) (Homo sapiens, UniProt Q9UM73, L1196M); assay: L1196M mutant ALK enzyme assay (microfluidic mobility shift); assay type: biochemical; conditions: ATP 60 μM, 0.5 nM enzyme, competitive inhibition fit; read-out: L1196M ALK enzyme assay (Ki)
T2 construct: ALK kinase domain (amino acids 1093-1411); made in house

[3] = biological target: T3, WT EML4-ALK (NIH-3T3 EML4-ALK wt v1 cells) (Homo sapiens, UniProt Q9UM73); assay: Cellular phospho-ALK (Tyr1604) ELISA assay for WT EML4-ALK; assay type: cell-based; conditions: 1 hour, read-out: ELISA assay for WT EML4-ALK (IC50)
T3 construct: expressed in transfected cells; the other entry of the earlier key: EML4 (Q9HC35, Echinoderm microtubule-associated protein-like 4)
Procedure: Cellular Phospho-ALK (Tyr1604) ELISA Assay for EML4-ALK:
The cells were maintained at 37° C. in a 5% CO2 incubator in DMEM (Invitrogen, Carlsbad, Calif.) medium supplemented with 1% L-glutamine, 1% penicillin and streptomycin, 1 ug/ml puromycin and 10% new born calf serum (NCS) in T-75 flasks.
Cells were washed with PBS and re-suspended in DMEM medium supplemented with 0.5% NCS and 1% pen/strep and seeded into 96-well plates at density of 20,000 cells/well/100 μl and incubated in the incubator at 37° C. and 5% CO2. After 20 hours of incubation, 100 μl of assay media (DMEM) in presence of designated PF-compounds concentrations or controls (DMSO) were added into plates and incubated for 1 hour in the incubator. Media was then removed and lysis buffer, containing phosphatase inhibitors and phenylmethanesulfonyl fluoride (PMSF), was added to wells and shaken at 4° C. for 30 minutes to generate protein lysates.
A phospho-ALK (Tyr1604) rabbit antibody was coated onto the 96-well microplates. 50 μl of cell lysates were added to the antibody coated plate and incubated at room temperature for 2 hours. Following extensive washing with 0.1% Tween 20 in PBS to remove unbound materials, ALK mouse mAb was added to detect captured phospho-ALK (Tyr1604) and phospho-ALK fusion proteins. Anti-mouse IgG, HRP-linked antibody was then used to recognize the bound detection antibody. Finally, the chemiluminescent reagent was added and incubated for 10 minutes for signal development. The assay plates were read in the Envision plate reader in the luminescent mode. IC50 values were calculated by a concentration-response curve fitting using a four-parameter analytic method.

[4] = biological target: T4, L1196M EML4-ALK (NIH-3T3 EML4-ALK v1 L1196M cells) (Homo sapiens, UniProt Q9UM73, L1196M); assay: Cellular phospho-ALK (Tyr1604) ELISA assay for L1196M EML4-ALK; assay type: cell-based; conditions: NIH-3T3 EML4-ALK v1 L1196M cells, 1 hour, phospho-ALK (Tyr1604); read-out: ELISA assay for L1196M EML4-ALK (IC50)
T4 construct: expressed in transfected cells; the other entry of the earlier key: EML4 (Q9HC35, Echinoderm microtubule-associated protein-like 4)

Ki [1] [nM]	Ki [2] [nM]	IC50 [3] [nM]	IC50 [4] [nM]	Structure (SMILES)	ring closure, isolated yield (cc_pd bond, Pd(OAc)2/cataCXium A/KOAc, t-amyl alcohol, 30.0 mM, 120.0 °C) [%]	ring closure, isolated yield (ether bond, 13-membered ring, NaH, DMF, 51.0 mM, 50.0 °C, 2 steps) [%]	ring closure, isolated yield (amide bond, 12-membered ring, HATU/DIEA, DMF/THF, 18.6 mM, 0.0 °C) [%]
4.6	21.5	–	–	C[C@H]1Oc2cc(nnc2N)-c2c(nn(C)c2C#N)CN(C)C(=O)c2ccc(F)cc21 [Example 60, (10R)-7-amino-12-fluoro-2,10,16-trimethyl-15-oxo-10,15,16,17-tetrahydro-2H-8,4-(metheno)pyrazolo[4,3-h][2,5,6,11]benzoxatriazacyclotetradecine-3-carbonitrile]	–	–	9
2.18	17.8	35.2	393	C[C@H]1Oc2cc(cnc2N)-c2c(C#N)noc2CN(C)C(=O)c2ccc(F)cc21 [Example 117, (10R)-7-amino-12-fluoro-10,16-dimethyl-15-oxo-10,15,16,17-tetrahydro-8,4-(metheno)[1,2]oxazolo[4,5-h][2,5,11]benzoxadiazacyclotetradecine-3-carbonitrile]	–	–	–
1.6	13.4	7.79	264	CC1Oc2cc(cnc2N)-c2c(nn(C)c2C#N)COCc2ccc(F)cc21 (stereo not shown) [Example 119]	–	–	–
3.32	16.5	35.3	892	C[C@H]1Oc2cc(cnc2N)-c2c(nn(C)c2C#N)CNC(=O)c2ccc(F)cc21 [Example 132, (10R)-7-amino-12-fluoro-2,10-dimethyl-15-oxo-10,15,16,17-tetrahydro-2H-8,4-(metheno)pyrazolo[4,3-h][2,5,11]benzoxadiazacyclotetradecine-3-carbonitrile]	–	–	–
3.06	32.8	95.8	997	CCn1nnc2c1-c1cnc(N)c(c1)O[C@H](C)c1cc(F)ccc1C(=O)N(C)C2 [Example 133, (10R)-7-amino-3-ethyl-12-fluoro-10,16-dimethyl-16,17-dihydro-3H-4,8-(metheno)[1,2,3]triazolo[4,5-h][2,5,11]benzoxadiazacyclotetradecin-15(10H)-one]	–	–	–
0.6	4.8	28.5	419	C[C@H]1Oc2cc(cnc2N)-c2c(nnn2C2CCC2)CN(C)C(=O)c2ccc(F)cc21 [Example 136, (10R)-7-amino-3-cyclobutyl-12-fluoro-10,16-dimethyl-16,17-dihydro-3H-8,4-(metheno)[1,2,3]triazolo[4,5-h][2,5,11]benzoxadiazacyclotetradecin-15(10H)-one]	–	–	–

More lines, now with the values behind:

Structure (SMILES)	Ki [1] [nM]	Ki [2] [nM]	IC50 [3] [nM]	IC50 [4] [nM]	ring closure, isolated yield (cc_pd bond, Pd(OAc)2/cataCXium A/KOAc, t-amyl alcohol, 30.0 mM, 120.0 °C) [%]	ring closure, isolated yield (ether bond, 13-membered ring, NaH, DMF, 51.0 mM, 50.0 °C, 2 steps) [%]	ring closure, isolated yield (amide bond, 12-membered ring, HATU/DIEA, DMF/THF, 18.6 mM, 0.0 °C) [%]
CC1Oc2cc(cnc2N)-c2c(cnn2C)CCCCCOc2ccc(F)cc21 (stereo not shown)	–	–	–	–	43	–	–
Cn1ncc2c1-c1cnc(N)c(c1)OCc1cc(F)ccc1OCCC2	–	–	–	–	–	37	–
COc1cnc2cc1-c1cnc(N)c(c1)O[C@H](C)c1cc(F)ccc1C(=O)N(C)CC2 [Example 116, (1R)-4-amino-19-fluoro-9-methoxy-1,15-dimethyl-14,15-dihydro-1H-3,7:8,12-di(metheno)-2,5,11,15-benzoxatriazacyclooctadecin-16(13H)-one]	> 1500	> 3000	> 10000	> 10000	–	–	–
Cn1nc2c(c1C#N)-c1cnc(N)c(c1)OCc1cc(F)ccc1COC2 [Example 118, 7-amino-12-fluoro-2-methyl-2,10,15,17-tetrahydro-8,4-(metheno)pyrazolo-[4,3-h][2,11,5]benzodioxazacyclotetradecine-3-carbonitrile]	17.8	64.7	217	1400	–	–	–
C[C@H]1Oc2cc(cnc2N)-c2c(nnn2CC2CCC2)CN(C)C(=O)c2ccc(F)cc21 [Example 135, (10R)-7-amino-3-(cyclobutylmethyl)-12-fluoro-10,16-dimethyl-16,17-dihydro-3H-8,4-(metheno)[1,2,3]triazolo[4,5-h][2,5,11]benzoxadiazacyclotetradecin-15(10H)-one]	2.1	12.6	45.9	814	–	–	–
